Earlier results on one compound are cited in patent US8523569B2, “Controlled release local anesthetic for post dental surgery and method of use” (priority 2007, dated 2013).

SMILES strings stand for the structures.

For this data set the following is noted: immediate release vasoconstrictor, known to the art.

Turning to `CNC[C@H](O)c1ccc(O)c(O)c1` [epinephrine], the “prolongation of local anesthetic activity, at best” value was at most 1 h.
